Experimental data as given in patent US20230113944A1, “COMPOSITIONS AND METHODS FOR THE TREATMENT OF NEURODEGENERATIVE DISEASES” (priority 2020, published 2023).
Where two headings read alike, the source gives them in different places.

Legend:
Human AChE = molecular target: T1, Human AChE (Homo sapiens, UniProt P22303); experiment: biochemical
T1 construct: purchased Sigma
Method: This acetylcholinesterase (AChE) assay is based on an Amplex Red assay kit (Thermo Fisher A12217). Human AChE (Sigma) was used. Briefly, 5 μL of compounds at the desired concentration were loaded into wells of a 384-well plate. Then, 5 μl of human AChE (30 mU/mL) was loaded into each well, followed by the addition of 10 μL of the working solution which contains 400 μM Amplex Red reagent, 2 U/mL HRP, 0.2 U/mL choline oxidase, and 100 μM acetylcholine. The reaction was monitored for 60 minutes and read at 530/590 nm. AChE IC50 was determined by plotting AChE activity as a percentage of DMSO control using GraphPad Prism software.

human nSMase2 = molecular target: T2, human nSMase2 (Homo sapiens, UniProt Q9NY59); experiment: biochemical; assay type: biochemical
T2 construct: expressed in transfected cells; host or cells: HEK293T
T2 sequence (Q9NY59 1-655): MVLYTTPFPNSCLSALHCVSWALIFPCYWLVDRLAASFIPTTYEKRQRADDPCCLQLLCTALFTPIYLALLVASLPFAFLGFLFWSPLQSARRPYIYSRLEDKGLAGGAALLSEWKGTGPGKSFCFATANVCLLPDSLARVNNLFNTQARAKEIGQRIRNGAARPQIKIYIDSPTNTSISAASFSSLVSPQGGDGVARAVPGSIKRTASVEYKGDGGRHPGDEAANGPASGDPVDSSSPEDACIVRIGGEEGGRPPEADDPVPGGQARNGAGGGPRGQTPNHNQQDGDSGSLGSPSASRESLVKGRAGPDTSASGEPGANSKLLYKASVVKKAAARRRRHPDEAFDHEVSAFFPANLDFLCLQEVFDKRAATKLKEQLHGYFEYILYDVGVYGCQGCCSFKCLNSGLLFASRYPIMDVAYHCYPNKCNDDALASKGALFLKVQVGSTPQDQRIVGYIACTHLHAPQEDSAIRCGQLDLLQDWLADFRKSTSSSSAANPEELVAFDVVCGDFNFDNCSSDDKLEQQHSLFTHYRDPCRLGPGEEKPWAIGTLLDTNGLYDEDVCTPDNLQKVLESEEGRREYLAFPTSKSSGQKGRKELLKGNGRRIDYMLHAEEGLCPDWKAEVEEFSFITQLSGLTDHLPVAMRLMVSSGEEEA
Method: To evaluate nSMase2 inhibitory activity of tested compounds, cell lysates from HEK293T cells over-expressing human nSMase2 were used as the source of the nSMase2 enzyme. The Amplex Red Sphingomyelinase activity assay was performed according to previously a described protocol^1. Confluent cells were washed with PBS and harvested with lysis buffer [100 mM Tris-HCl pH 7.5, 100 mM sucrose, 100 μM PMSF, 1× protease inhibitor cocktail] using a cell scraper, and then sonicated 3 times on ice for 10 sec and centrifuged at 10,000×g for 10 min at 4° C. to remove remaining cell debris. An initial screening of a compound library was performed using 50 μM compound concentrations. In secondary testing, selected compounds were analyzed at multiple compound concentrations and plotted as a percentage of DMSO control; dose-response curves were generated to determine IC50s using GraphPad Prism software (GraphPad Software, La Jolla Calif.). […] Activity of the enzyme in the presence of the different concentrations of the inhibitors was plotted against substrate concentration and the maximal rate of the enzymatic reaction (Vmax) and Michaelis constant were calculated using GraphPad Prism.

[1] = Parallel artificial membrane permeability (IAM column) prediction of CNS permeability; assay type: in vitro ADME
Method: To predict the potential for brain permeability, a Regis Technologies analytical column connected to an Agilent HPLC system (Infinity 1260 quaternary pump and multiple wavelength detector; 1200 autosampler) was used. An IAM.PC.DD column was (4.6 mm i.d.×10 cm, particle size 5 μm; pore size 300 Å) conditioned with 20 column volumes of mobile phase or until a stable line was achieved. A mobile phase with a consistent flow rate of 1 mL/min was used comprising 100 mM Na2PO4 (solvent A) and acetonitrile (solvent B); compounds were eluted using a gradient (min/% B: 0/30, 10/60, 11/30, 15/30). Detector settings were 220, 250 and 280 nm and acquisition time was 15 min. The autosampler injected 10 μL of compound at 2 mM final, diluted from 10 mM in DMSO in 70:30 (water:acetonitrile). After elution, compound retention and void volume times were obtained from the chromatogram. The IAM capacity factor: (KIAM) was calculated using the equation: […]
where tr is the retention time of a compound and t0 is the void volume time of the column. To predict CNS permeability, we used the correlation described by the formula below.

[2] = molecular target: human serum albumin (HSA) (Homo sapiens, UniProt P02768); experiment: Binding to human serum albumin (HSA); details: for fraction unbound: human, human serum albumin
human serum albumin (HSA), sequence (P02768 25-609): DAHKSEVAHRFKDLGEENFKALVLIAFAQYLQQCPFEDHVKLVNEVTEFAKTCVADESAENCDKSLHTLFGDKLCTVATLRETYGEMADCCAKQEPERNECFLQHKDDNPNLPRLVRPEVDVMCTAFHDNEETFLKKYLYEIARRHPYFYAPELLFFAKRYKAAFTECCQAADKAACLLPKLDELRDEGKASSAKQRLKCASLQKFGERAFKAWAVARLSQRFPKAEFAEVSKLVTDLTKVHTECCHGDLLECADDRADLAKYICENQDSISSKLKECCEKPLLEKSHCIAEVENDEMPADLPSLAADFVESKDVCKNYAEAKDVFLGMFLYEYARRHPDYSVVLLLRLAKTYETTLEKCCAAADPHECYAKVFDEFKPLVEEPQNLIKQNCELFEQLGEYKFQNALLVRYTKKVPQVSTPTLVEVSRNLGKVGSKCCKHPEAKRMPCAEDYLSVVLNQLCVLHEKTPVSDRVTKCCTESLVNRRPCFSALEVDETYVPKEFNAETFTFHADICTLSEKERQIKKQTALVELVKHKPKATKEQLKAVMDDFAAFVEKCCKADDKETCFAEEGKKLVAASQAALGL

T1 sequence (P22303 32-614): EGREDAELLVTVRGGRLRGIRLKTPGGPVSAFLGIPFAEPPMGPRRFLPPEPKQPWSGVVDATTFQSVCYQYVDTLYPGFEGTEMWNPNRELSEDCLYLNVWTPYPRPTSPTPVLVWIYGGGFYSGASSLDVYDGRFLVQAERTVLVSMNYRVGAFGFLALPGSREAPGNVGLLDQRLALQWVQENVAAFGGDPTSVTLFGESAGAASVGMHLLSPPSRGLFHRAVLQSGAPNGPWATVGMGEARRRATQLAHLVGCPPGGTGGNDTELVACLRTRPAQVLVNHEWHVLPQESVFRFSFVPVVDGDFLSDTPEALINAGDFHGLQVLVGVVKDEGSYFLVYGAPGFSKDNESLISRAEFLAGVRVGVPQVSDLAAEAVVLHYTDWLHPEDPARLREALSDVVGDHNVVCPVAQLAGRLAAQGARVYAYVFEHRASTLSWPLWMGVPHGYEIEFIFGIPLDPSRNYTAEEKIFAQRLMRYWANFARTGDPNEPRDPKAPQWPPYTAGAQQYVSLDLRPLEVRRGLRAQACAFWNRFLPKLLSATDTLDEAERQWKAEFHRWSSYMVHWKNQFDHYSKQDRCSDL

Structure (SMILES)	IC50 (Human AChE; AChE activity) [µM]	IC50 (human nSMase2; IC50 (nSMase2) Groups: A-D) [µM]	other results
CCN(C)C(=O)Oc1ccc2c(c1)[C@]1(C)CCO[C@@H]1N2C [drawing 65]	> 5		
CN1c2ccc(OC(=O)Nc3ccccc3)cc2[C@]2(C)CCO[C@H]12 [drawing 32]	< 0.5	1 to 10	
Cc1cc(C)cc(NC(=O)Oc2ccc3c(c2)[C@]2(C)CCO[C@@H]2N3C)c1 [drawing 37]	< 0.5	1 to 10	
CN1c2ccc(OC(=O)Nc3ccncc3)cc2[C@]2(C)CCO[C@H]12 (racemic)	> 5		
COc1cnc2c(c1)[C@]1(C)CCO[C@@H]1N2		> 50	
CN1c2ccc(OC(=O)Nc3ccc(OC(F)(F)F)cc3)cc2[C@]2(C)CCO[C@H]12 [drawing 35]	> 5	10 to 50	
CN1c2ccc(OCc3ccccc3)nc2[C@]2(C)CCO[C@H]12		> 50	
CN1c2ccc(OC(=O)Nc3ccc(OC(F)(F)F)cc3)cc2[C@]2(C)CCO[C@H]12 [Compound 4]			CNS perm (PAMPA) [1]: 0.7; fraction unbound [2]: 0.33; IC50 (human nSMase2; IC50 nSMase2): 2.7 µM; IC50 (Human AChE; IC50 AChE): > 5 µM
CCN1c2ccc(O)nc2[C@]2(C)CCO[C@H]12		1 to 10	
CN1c2ccc(OC(=O)Nc3ccncc3F)cc2[C@]2(C)CCO[C@H]12 [drawing 62]	> 5	< 1	
CC[C@@H]1C[C@@]2(C)c3cc(OC(=O)Nc4ccccc4)ccc3N(C)[C@H]2O1 [drawing 43]	2.5 to 5	1 to 10	
COc1ccnc2c1N[C@H]1OCC[C@@]21C		> 50	
Cc1cc(C)cc(NC(=O)Oc2ccc3c(c2)[C@]2(C)CCO[C@@H]2N3C)c1 [Compound 6]			CNS perm (PAMPA) [1]: 3.1; fraction unbound [2]: 0.04; IC50 (human nSMase2; IC50 nSMase2): 3.6 µM; IC50 (Human AChE; IC50 AChE): 0.2 µM
C[C@@]12CCO[C@@H]1Nc1ccc(O)nc12		> 50	
COC(=O)N1CCC[C@@]2(C)c3nc(OC)ccc3N[C@@H]12		> 50	
CC[C@H]1C[C@@]2(C)c3cc(OC(=O)Nc4ccccc4)ccc3N(C)[C@H]2O1 [Compound 9]			CNS perm (PAMPA) [1]: 3; fraction unbound [2]: 0.07; IC50 (human nSMase2; IC50 nSMase2): > 5 µM; IC50 (Human AChE; IC50 AChE): 2.5 µM
C[C@@]12CCO[C@@H]1Nc1ccc(Br)nc12		> 50	
CC[C@@H]1C[C@@]2(C)c3cc(OC(=O)Nc4ccccc4)ccc3N(C)[C@H]2O1 [Compound 10]			CNS perm (PAMPA) [1]: 3.2; fraction unbound [2]: 0.05; IC50 (Human AChE; IC50 AChE): 3.7 µM
CC[C@H]1C[C@@]2(C)c3cc(OC(=O)Nc4ccccc4)ccc3N(C)[C@H]2O1 [drawing 42]	2.5 to 5	1 to 10	
CN1c2ccc(OC(=O)Nc3cncc(F)c3)cc2[C@]2(C)CCO[C@H]12 [drawing 63]	> 5	< 1	
COc1cccc(NC(=O)Oc2ccc3c(c2)[C@]2(C)CCO[C@@H]2N3C)c1 [Compound 3]			CNS perm (PAMPA) [1]: 2.3; fraction unbound [2]: 0.1; IC50 (Human AChE; IC50 AChE): 0.1 µM
CN1c2ccc(OC(=O)Nc3ccccc3)nc2[C@]2(C)CCO[C@H]12		1 to 10	
CN1c2ccc(OC(=O)Nc3ccc(C(F)(F)F)cc3)cc2[C@]2(C)CCO[C@H]12 [drawing 64]	> 5	1 to 10	

Structure (SMILES)	IC50 (Human AChE; AChE activity) [µM]	IC50 (human nSMase2; IC50 (nSMase2) Groups: A-D) [µM]	other results
CN1c2ccc(OC(=O)Nc3ccccn3)cc2[C@]2(C)CCO[C@H]12 [Compound 12]			CNS perm (PAMPA) [1]: 1.9; degree of binding to human serum albumin (HSA) [2]: low degree of binding; fraction unbound [2]: 0.28; IC50 (human nSMase2; IC50 nSMase2): 0.8 µM; IC50 (Human AChE; IC50 AChE): > 5 µM
C[C@@]12CCO[C@@H]1Nc1ncccc12		> 50	
COc1ccc2c(n1)[C@]1(C)CCO[C@@H]1N2		> 50	
C[C@@]12CCO[C@@H]1Nc1cccnc12		> 50	
CN1CC[C@@]2(C)c3cc(OC(=O)Nc4ccccc4)ccc3N(C)[C@@H]12 [phenserine, reference compound]			IC50 (human nSMase2; nSMase2 IC50): > 50 µM
C[C@@]12CCO[C@@H]1Nc1ccc(OCc3ccccc3)nc12		> 50	
C[C@@]12CCO[C@@H]1Nc1ccc(Cl)nc12		> 50	
CCN1c2ccc(OCc3ccccc3)nc2[C@]2(C)CCO[C@H]12		> 50	
C=CC[C@@]12CCN(S(=O)(=O)c3ccc(C)cc3)[C@@H]1Nc1ccc(OC)nc12		> 50	
CN1c2ccc(O)nc2[C@]2(C)CCO[C@H]12		1 to 10	
CN1c2ccc(OC(=O)Nc3ccc(C(F)(F)F)cc3)cc2[C@]2(C)CCO[C@H]12 [Compound 15]			CNS perm (PAMPA) ([1]; PAMPA, 2 mM): 2.2; fraction unbound [2]: 0.07; IC50 (Human AChE; IC50 AChE): > 5 µM
COc1ccc2c(n1)[C@]1(C)CCN(S(=O)(=O)c3ccc(C)cc3)[C@@H]1N2		10 to 50	
COc1cccc(NC(=O)Oc2ccc3c(c2)[C@]2(C)CCO[C@@H]2N3C)c1 [drawing 34]	< 0.5	1 to 10	
COc1ccc2c(n1)[C@]1(c3ccccc3)CCO[C@@H]1N2		> 50	
CCN(C)C(=O)Oc1ccc2c(c1)[C@]1(C)CCO[C@@H]1N2C [Compound 16]			IC50 (Human AChE; IC50 AChE, Table 2, unit not in table, μM): > 5 µM
COc1ccc(NC(=O)Oc2ccc3c(c2)[C@]2(C)CCO[C@@H]2N3C)cc1 [drawing 33]	2.5 to 5	1 to 10	
C=CC[C@@]12CCO[C@@H]1Nc1ccc(OC)nc12		> 50	
COc1ccc2c(n1)[C@]1(C)CCCO[C@@H]1N2		> 50	
COc1nccc2c1N[C@H]1OCC[C@@]21C		> 50	
COc1cc(NC(=O)Oc2ccc3c(c2)[C@]2(C)CCO[C@@H]2N3C)cc(OC)c1 [drawing 38]	< 0.5	1 to 10	
CN1c2ccc(OC(=O)Nc3ccccn3)cc2[C@]2(C)CCO[C@H]12 [drawing 45]	> 5	< 1	
CN1c2ccc(OC(=O)NC3CCCCC3)cc2[C@]2(C)CCO[C@H]12 [drawing 36]	< 0.5	1 to 10	
